Assay results published in PMC5622171 (Nature Communications, 2017).
Entries after “also recorded” stand apart in the source; their conditions may differ.

Legend:
Cyp3a11 = test: Loss of righting reflex (LORR) assay in hPXR-tg mice; format: in vivo, mouse; settings: hPXR humanized mice, SPA70 200 mg kg−1 i.p., RIF 10 mg kg−1
Protocol: The LORR assay method has been described previously, by using 2,2,2-tribromoethanol, a substrate of mouse Cyp3a11 which is induced by hPXR. Mice were first injected intraperitoneally with 250 mg kg^−1 of 2,2,2-tribromoethanol, then placed on their backs under a heat lamp as soon as they lost their righting reflex. The LORR duration was defined as the time period from the start of LORR to when mice could right themselves twice within 1 min, after being placed on their backs. For each mouse, a baseline LORR duration was first established before oral administration of vehicle or compounds. […] A paired Student’s t-test was used to compare the LORR duration at baseline and after treatment. A P-value of less than 0.05 was considered to indicate a significant difference between the compared groups.

hPXR = molecular target: T1, hPXR (Homo sapiens, UniProt O75469); test: hPXR transactivation assay, HepG2 stable cell line, agonistic mode
T1 sequence (O75469 1-434): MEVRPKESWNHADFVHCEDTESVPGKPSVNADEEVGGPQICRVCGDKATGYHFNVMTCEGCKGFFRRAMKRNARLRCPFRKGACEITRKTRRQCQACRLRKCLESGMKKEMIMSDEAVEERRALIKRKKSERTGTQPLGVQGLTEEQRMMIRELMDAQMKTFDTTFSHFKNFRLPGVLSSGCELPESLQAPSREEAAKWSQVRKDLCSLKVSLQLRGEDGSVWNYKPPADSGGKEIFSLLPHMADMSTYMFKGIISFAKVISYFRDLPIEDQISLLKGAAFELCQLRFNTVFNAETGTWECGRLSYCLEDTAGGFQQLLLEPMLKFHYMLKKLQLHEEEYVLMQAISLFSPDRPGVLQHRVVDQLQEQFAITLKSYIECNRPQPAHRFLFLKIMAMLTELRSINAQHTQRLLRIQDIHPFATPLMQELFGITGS

[1] = test system: hPXR transcriptional target genes; test: DNA microarray analysis in primary human hepatocytes; format: cell-based; settings: 2.5 μM SPA70, 48 h
Source text: In each case, total RNA was extracted using a Qiagen RNeasy Mini Kit and amplified and labeled by using an One-Color Low Input Quick Amp Labeling Kit (Agilent, Santa Clara, CA, catalog no. 5190-2305), after which it was hybridized to the SurePrint G3 Human GE 8 × 60 K microarray (Agilent-028004), which contains 42,545 unique probes targeting 27,958 Entrez genes. Microarrays were scanned with an Agilent array scanner (G2565CA) at 3-μm resolution. Microarray data were extracted by Agilent Feature Extraction software (v10.5.1.1). Quantile normalization of log-transformed, background-subtracted signal intensity was performed for all samples. This was followed by comparisons between sets of replicates from different experimental groups. Student’s t-test was used to determine the statistical significance of the difference between the paired samples from three replicates of each experiment. […] The data processing and PCA analysis were performed using Partek software (St. Louis, MO)[52]. The GEO accession number for the microarray analysis is GSE90122.

LXRβ = LXRβ (Homo sapiens, UniProt P55055); test: GeneBLAzer NR-UAS-bla HEK 293 T assay; format: cell-based; settings: antagonistic mode; only at concentrations higher than 5 µM
CYP3A4 promoter = test: hPXR-CYP3A4-luc reporter mice (hydrodynamic injection), bioluminescence imaging; format: in vivo, mouse; settings: transient transgenic mice, SPA70 150 mg kg−1, RIF 10 mg kg−1
Protocol: For the hydrodynamic injections, treatment, and in vivo imaging, in vivo delivery of the CYP3A4-luc reporter gene and the hPXR gene into mouse liver was performed using the hydrodynamic injection method described previously, [53], [54]. Briefly, by a rapid (5–10 s) tail-vein injection, each mouse received 25 μg of linearized CYP3A4-luc plasmid DNA with linearized hPXR plasmid DNA in sterile saline in a volume equal to 10% of its body weight. Imaging for luciferase activity was performed 2–8 weeks after somatic gene transfer (the bioluminescence was stable in the mice during the 2–8 weeks period). Fifteen mice were given i.p. injections of VivoGlo luciferin (Promega) (150 mg kg^−1 of body weight), anesthetized with 2.5% isoflurane, and imaged 10 min later in a Xenogen IVIS 200 system (Xenogen) to obtain a basal image. […] The mice were imaged 10 h after the last treatment in each round. The Living Image 3.2 software (Xenogen) was used to analyze the total photon flux of uniform regions of interest drawn around the liver. The CYP3A4-luc reporter activity (expressed as induction rate) was determined by using the total photon flux from the same mouse before and after treatment: induction rate = total photon flux (after treatment)/total photon flux (before treatment).

hCAR = molecular target: T2, hCAR (Homo sapiens, UniProt Q14994); test: hCAR transactivation assay, inverse agonistic mode; format: cell-based
T2 construct: expressed in transfected cells; host or cells: HepG2

C57BL/6 mice = test: Animal acute toxicity study; settings: oral 500 mg kg−1, days 13 and 15
mPXR = molecular target: T3, mPXR (Mus musculus, UniProt O54915); test: mPXR transactivation assay; format: cell-based; settings: only at concentrations higher than 5 µM
T3 construct: host or cells: Hepa 1-6
Protocol: For the mPXR transactivation assay, Hepa 1-6 cells were co-transfected with pCMV6-mPXR (Cat. No. MR226044, OriGene Technologies, Rockville, MD), pGL3-CYP3A4-luc and pRL-TK by using Lipofectamine 3000. […] The relative luciferase activity was determined by normalizing the firefly luciferase signal to the Renilla luciferase signal. The final DMSO concentration was 0.3% in all assay wells. In the agonistic assays, 10 μM PCN and DMSO were used as the positive (100% activation) and negative control (0% activation), respectively. […] Compound activity was normalized to the controls.

T2 sequence (Q14994 whole entry): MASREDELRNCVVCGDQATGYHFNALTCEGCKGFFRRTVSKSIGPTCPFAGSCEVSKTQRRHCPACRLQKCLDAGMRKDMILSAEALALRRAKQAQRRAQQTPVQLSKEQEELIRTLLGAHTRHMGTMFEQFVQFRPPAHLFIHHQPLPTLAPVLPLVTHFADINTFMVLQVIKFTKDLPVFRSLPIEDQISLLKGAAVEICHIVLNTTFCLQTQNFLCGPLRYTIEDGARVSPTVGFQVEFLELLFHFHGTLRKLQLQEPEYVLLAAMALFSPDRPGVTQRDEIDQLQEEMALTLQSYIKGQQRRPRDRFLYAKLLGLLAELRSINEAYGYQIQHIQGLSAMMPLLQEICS
LXRβ, sequence (P55055 222-460 limits assumed): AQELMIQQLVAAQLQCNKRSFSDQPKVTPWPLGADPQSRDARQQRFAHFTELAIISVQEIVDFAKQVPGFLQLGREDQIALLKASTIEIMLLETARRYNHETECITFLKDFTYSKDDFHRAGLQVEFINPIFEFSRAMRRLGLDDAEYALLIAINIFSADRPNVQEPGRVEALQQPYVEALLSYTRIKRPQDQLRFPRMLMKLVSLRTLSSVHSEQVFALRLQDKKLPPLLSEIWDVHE
T3 sequence (O54915 whole entry): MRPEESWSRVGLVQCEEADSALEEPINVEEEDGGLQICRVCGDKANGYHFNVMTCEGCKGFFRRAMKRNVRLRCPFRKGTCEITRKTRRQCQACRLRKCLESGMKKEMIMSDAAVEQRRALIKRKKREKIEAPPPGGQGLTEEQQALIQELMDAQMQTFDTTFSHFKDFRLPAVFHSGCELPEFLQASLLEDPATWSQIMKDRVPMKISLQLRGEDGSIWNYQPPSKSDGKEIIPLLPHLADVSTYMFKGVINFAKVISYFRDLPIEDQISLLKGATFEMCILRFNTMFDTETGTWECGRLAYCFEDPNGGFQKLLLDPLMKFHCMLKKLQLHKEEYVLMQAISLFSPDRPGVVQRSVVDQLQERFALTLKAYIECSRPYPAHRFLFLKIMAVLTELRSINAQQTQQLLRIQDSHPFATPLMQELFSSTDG

Compound: COc1ccc(OC)c(-n2nnc(S(=O)(=O)c3ccc(C(C)(C)C)cc3)c2C)c1 [SPA70]
- Effect on rifampicin-induced metabolism of 2,2,2-tribromoethanol by Cyp3a11 (LORR) (Cyp3a11): effectively blocked
- Effect on basal activity of hPXR (hPXR): very weakly inhibited the basal activity
- Effect on induction of hPXR transcriptional target genes by rifampicin, SR12813 and T090137 [1]: blocked their induction
- Effect on agonistic activity of T0901317 on LXRβ (LXRβ): weakly promoted the agonistic effect of T0901317 on LXRβ; also recorded: marginally increased the agonistic activity of T0901317 on LXRβ
- Effect on rifampicin-induced activation of the CYP3A4 promoter (CYP3A4 promoter): effectively blocked the rifampicin-induced activation of the CYP3A4 promoter
- Effect on basal activity of CAR (hCAR): very weak CAR inverse agonist; also recorded: very weakly inhibited the basal activity
- Mouse body weight (C57BL/6 mice): increase in mouse body weight
- mPXR agonism (mPXR): very weak mPXR agonist; also recorded: weak agonist of mPXR
